# Results reported in patent US20110040086A1, “Novel Beta-Lactam Antibiotics, Methods for Their Production, and Their Use” (DRITTE PATENTPORTFOLIO BETEILIGUNGSGESELLSCHAFT MB, priority 2007, published 2011).
# Legend:
# [1] = system: S. epidermidis 125; assay: agar diffusion test (Test System II, multi-resistant germs); type: cell-based, Staphylococcus epidermidis
# Experimental: (§1) The test substances are deposited in stepped quantities (10 μg, 50 μg, 100 μg) onto active ingredient carriers (sensi-discs). For this purpose, the test substances are dissolved in methanol or A. dest. according to their solubility. Each inoculated plate is fitted with 3 test sheets.
# (§2) Test System II (Effect Against Multi-Resistant Germs)
# (§3) For this purpose, bacteria is cultivated on Müller-Hinton-Agar II plates.
# (§4) With 1-1.5 ml physiological saline solution, a bacteria suspension of McFarland 0.5 (corresponds to a bacteria density of 150×10^6 germs) is produced. Then, with a sterile glass rod, a small drop of bacteria suspension is placed on the Müller-Hinton-Agar plate and coated in three layers (vertical, horizontal, and transverse). Thereafter, the sensi-discs with the novel semi-synthetic test substances are placed on top. The fitted plates are incubated for 18-20 hours at 37° C. After incubation, the diameters of the zones of inhibition are read as a measure for the antimicrobial activity of the novel semi-synthetic test substances.
# [2] = system: S. aureus ATCC 6538; assay: as above; type: cell-based, Staphylococcus aureus
# Experimental: as §1, §2, §3, §4
# [3] = system: S. aureus 38418; assay: as above; type: cell-based, Staphylococcus aureus
# Experimental: as §1, §2, §3, §4
# [4] = system: Bacillus megaterium SBUG 1152; assay: agar diffusion test (Test System 1, antimicrobial effect); type: cell-based
# Experimental: (§5) Test System 1 (Antimicrobial Effect)
# (§6) The test germs Escherichia coli SBUG 1135 and Bacillus megaterium SBUG 1152 are drawn overnight (17 hours at 37° C.) in 5 ml nutrient medium II. The incubation is performed in a shaking incubator (INFORS AG CH 4103, Bottmingen, Switzerland) at a shaking frequency of 180 rpm.
# (§7) After 17 h incubation time, Escherichia coli has reached a cell density of ca. 2.4×10^10 cells/ml and Bacillus megaterium a cell density of ca. 2.1×10^8 cells/ml.
# (§8) The seeding of bacteria in agar is selected so that, dense, but not confluent individual colonies develop after the incubation.
# Bacillus megaterium: 0.1 ml of non-diluted overnight culture (ÜN) in 10 ml nutrient agar corresponds to a cell count of 10^6.
# (§9) The inoculated nutrient agar is set in sterile Petri dishes and left standing for a few minutes for drying.
# as §1
# (§10) After a 20-hour incubation time at 37° C., the zones of inhibition around the individual test sheets could be measured. The diameter of the zone of inhibition is specified in mm.
# [5] = system: S. epidermidis 847; assay: agar diffusion test (Test System II, multi-resistant germs); type: cell-based, Staphylococcus epidermidis; design: key: r = resistant (no detectable zone of inhibition)
# Experimental: as §1, §2, §3, §4
# [6] = system: S. epidermidis 1068; assay: as above; type: cell-based, Staphylococcus epidermidis; design: key: r = resistant (no detectable zone of inhibition)
# Experimental: as §1, §2, §3, §4
# [7] = system: S. epidermidis 1071; assay: as above; type: cell-based, Staphylococcus epidermidis; design: key: r = resistant (no detectable zone of inhibition)
# Experimental: as §1, §2, §3, §4
# [8] = system: S. epidermidis 563; assay: as above; type: cell-based, Staphylococcus epidermidis; design: key: r = resistant (no detectable zone of inhibition)
# Experimental: as §1, §2, §3, §4
# [9] = system: Escherichia coli SBUG 1135; assay: agar diffusion test (Test System 1, antimicrobial effect); type: cell-based; design: key: r = resistant (no detectable zone of inhibition)
# Experimental: as §5, §6, §7, §8
# Escherichia coli: the ÜN is diluted 1:100 with physiological saline solution, of which 0.1 ml is converted into 10 ml nutrient agar. That corresponds to a cell count of 10^6.
# as §9, §1, §10
# [10] = system: Enterococcus faecalis 769; assay: agar diffusion test (Test System II, multi-resistant germs); type: cell-based; design: key: r = resistant (no detectable zone of inhibition)
# Experimental: as §1, §2, §3, §4
# [11] = system: Staphylococcus aureus 315; assay: as above; type: cell-based; design: key: r = resistant (no detectable zone of inhibition)
# Experimental: as §1, §2, §3, §4
# [12] = system: E. faecalis 945; assay: as above; type: cell-based, Enterococcus faecalis; design: key: r = resistant (no detectable zone of inhibition)
# Experimental: as §1, §2, §3, §4
# [13] = system: B. subtilis AWD 166; assay: agar diffusion test (antimicrobial effect); type: cell-based, Bacillus subtilis
# Experimental: as §8, §9, §1, §10
# [14] = system: S. aureus 36881; assay: agar diffusion test (Test System II, multi-resistant germs); type: cell-based, Staphylococcus aureus; design: key: r = resistant (no detectable zone of inhibition)
# Experimental: as §1, §2, §3, §4
# [15] = system: S. aureus 520; assay: as above; type: cell-based, Staphylococcus aureus; design: key: r = resistant (no detectable zone of inhibition)
# Experimental: as §1, §2, §3, §4
# [16] = system: S. aureus 34289; assay: as above; type: cell-based, Staphylococcus aureus; design: key: r = resistant (no detectable zone of inhibition)
# Experimental: as §1, §2, §3, §4
# [17] = system: S. aureus North Germany strain; assay: as above; type: cell-based, Staphylococcus aureus; design: key: r = resistant (no detectable zone of inhibition)
# Experimental: as §1, §2, §3, §4
# [18] = system: S. aureus 39105; assay: as above; type: cell-based, Staphylococcus aureus; design: key: r = resistant (no detectable zone of inhibition)
# Experimental: as §1, §2, §3, §4
# [19] = system: S. aureus 33490; assay: as above; type: cell-based, Staphylococcus aureus; design: key: r = resistant (no detectable zone of inhibition)
# Experimental: as §1, §2, §3, §4
# [20] = system: S. aureus 526; assay: as above; type: cell-based, Staphylococcus aureus; design: key: r = resistant (no detectable zone of inhibition)
# Experimental: as §1, §2, §3, §4
compound,measurement,setting,value
"COC(=O)C1=C(NC(C(=O)NC2C(=O)N3C(C(=O)O)=C(C)CSC23)c2ccc(O)cc2)C(=O)C=CC1=O (stereo not drawn) [1c, 7-[2-(4-hydroxyphenyl)-2-(2-methoxycarbonyl-3,6-dioxocyclohexa-1,4-dienylamino)-acetylamino]-desacetoxycephalosporanic acid]",Diameter of zone of inhibition,[1]; Quantity n 0.019,12 mm
same,Diameter of zone of inhibition,[1]; Quantity n 0.1,24 mm
same,Diameter of zone of inhibition,[1]; Quantity n 0.19,28 mm
same,Diameter of zone of inhibition,[2]; Quantity n 0.019,18 mm
same,Diameter of zone of inhibition,[2]; Quantity n 0.1,26 mm
same,Diameter of zone of inhibition,[2]; Quantity n 0.19,30 mm
same,Diameter of zone of inhibition,[3]; Quantity n [mol] 0.019,10 mm
same,Diameter of zone of inhibition,[3]; Quantity n [mol] 0.1,22 mm
same,Diameter of zone of inhibition,[3]; Quantity n [mol] 0.19,28 mm
same,Diameter of zone of inhibition,[4]; Quantity n 0.019,22 mm
same,Diameter of zone of inhibition,[4]; Quantity n 0.1,30 mm
same,Diameter of zone of inhibition,[4]; Quantity n 0.19,32 mm
same,Diameter of zone of inhibition,[5]; Quantity n [mol] 0.019,r
same,Diameter of zone of inhibition,[5]; Quantity n [mol] 0.1,14 mm
same,Diameter of zone of inhibition,[5]; Quantity n [mol] 0.19,18 mm
same,Diameter of zone of inhibition,[6]; Quantity n 0.019,r
same,Diameter of zone of inhibition,[6]; Quantity n 0.1,14 mm
same,Diameter of zone of inhibition,[6]; Quantity n 0.19,20 mm
same,Diameter of zone of inhibition,[7]; Quantity n 0.019,r
same,Diameter of zone of inhibition,[7]; Quantity n 0.1,14 mm
same,Diameter of zone of inhibition,[7]; Quantity n 0.19,20 mm
same,Diameter of zone of inhibition,[8]; Quantity n 0.019,r
same,Diameter of zone of inhibition,[8]; Quantity n 0.1,14 mm
same,Diameter of zone of inhibition,[8]; Quantity n 0.19,20 mm
same,Diameter of zone of inhibition,[9]; Quantity n 0.019,r
same,Diameter of zone of inhibition,[9]; Quantity n 0.1,14 mm
same,Diameter of zone of inhibition,[9]; Quantity n 0.19,18 mm
same,Diameter of zone of inhibition,[10]; Quantity n 0.019,r
same,Diameter of zone of inhibition,[10]; Quantity n 0.1,r
same,Diameter of zone of inhibition,[10]; Quantity n 0.19,r
same,Diameter of zone of inhibition,[11]; Quantity n 0.019,r
same,Diameter of zone of inhibition,[11]; Quantity n 0.1,r
same,Diameter of zone of inhibition,[11]; Quantity n 0.19,12 mm
same,Diameter of zone of inhibition,[12]; Quantity n 0.019,r
same,Diameter of zone of inhibition,[12]; Quantity n 0.1,r
same,Diameter of zone of inhibition,[12]; Quantity n 0.19,r
same,Diameter of zone of inhibition,[13]; Quantity n 0.019,22 mm
same,Diameter of zone of inhibition,[13]; Quantity n 0.1,30 mm
same,Diameter of zone of inhibition,[13]; Quantity n 0.19,32 mm
same,Diameter of zone of inhibition,[14]; Quantity n 0.019,r
same,Diameter of zone of inhibition,[14]; Quantity n 0.1,r
same,Diameter of zone of inhibition,[14]; Quantity n 0.19,14 mm
same,Diameter of zone of inhibition,[15]; Quantity n [mol] 0.019,r
same,Diameter of zone of inhibition,[15]; Quantity n [mol] 0.1,r
same,Diameter of zone of inhibition,[15]; Quantity n [mol] 0.19,r
same,Diameter of zone of inhibition,[16]; Quantity n [mol] 0.019,r
same,Diameter of zone of inhibition,[16]; Quantity n [mol] 0.1,r
same,Diameter of zone of inhibition,[16]; Quantity n [mol] 0.19,r
same,Diameter of zone of inhibition,[17]; Quantity n 0.019,r
same,Diameter of zone of inhibition,[17]; Quantity n 0.1,10 mm
same,Diameter of zone of inhibition,[17]; Quantity n 0.19,14 mm
same,Diameter of zone of inhibition,[18]; Quantity n 0.019,r
same,Diameter of zone of inhibition,[18]; Quantity n 0.1,r
same,Diameter of zone of inhibition,[18]; Quantity n 0.19,12 mm
same,Diameter of zone of inhibition,[19]; Quantity n [μmol] 0.019,r
same,Diameter of zone of inhibition,[19]; Quantity n [μmol] 0.1,14 mm
same,Diameter of zone of inhibition,[19]; Quantity n [μmol] 0.19,20 mm
same,Diameter of zone of inhibition,[20]; Quantity n 0.019,r
same,Diameter of zone of inhibition,[20]; Quantity n 0.1,r
same,Diameter of zone of inhibition,[20]; Quantity n 0.19,r
